# Data taken from PubChem BioAssay AID220 (DTP/NCI, 2004).
# Several values for one entry are separate records, joined by “and”; a condition that tells them apart may be missing. Identical values can stand only once. Results filed as inconclusive are left out.
# Test system: CD8F1 mice, subcutaneous mammary adenocarcinoma, T/C%
# Assay: NCI In Vivo Anticancer Drug Screen. Data for tumor model Mammary Adenocarcinoma CD8F1 (subcutaneous) in CD8F1
# Conditions: higher = larger tumour
# Description: The antitumor activity of compounds was measured in mice bearing transplantable tumors. Survival or tumor size were measured and the results are expressed as the measurement made in the treated group (T) divided by the measurement made in the vehicle treated control group (C). The tumor model used in this assay is Mammary Adenocarcinoma CD8F1 (subcutaneous) in CD8F1
# [1] = endpoint: median tumor weight (est.), dose: 50.0 mg/kg/injection, schedule: Q07DX005 (ip), vehicle: saline
# [2] = endpoint: median tumor weight (est.), dose: 100.0 mg/kg/injection, schedule: Q07DX005 (ip), vehicle: saline
# [3] = endpoint: median tumor weight (est.), dose: 12.5 mg/kg/injection, schedule: Q07DX005 (ip), vehicle: suspension in saline
# [4] = endpoint: median tumor weight (est.), dose: 25.0 mg/kg/injection, schedule: Q07DX005 (ip), vehicle: suspension in saline
# [5] = endpoint: median tumor weight (est.), dose: 50.0 mg/kg/injection, schedule: Q07DX005 (ip), vehicle: suspension in saline
# [6] = endpoint: median tumor weight (est.), dose: 100.0 mg/kg/injection, schedule: Q07DX005 (ip), vehicle: suspension in saline
# [7] = endpoint: median tumor weight (est.), dose: 200.0 mg/kg/injection, schedule: Q07DX005 (ip), vehicle: suspension in saline
# [8] = endpoint: median tumor weight (est.), dose: 400.0 mg/kg/injection, schedule: Q07DX005 (ip), vehicle: suspension in saline
# [9] = endpoint: median tumor weight change, dose: 125.0 mg/kg/injection, schedule: Q01DX001 (ip), vehicle: suspension in saline
# [10] = endpoint: median tumor weight change, dose: 250.0 mg/kg/injection, schedule: Q01DX001 (ip), vehicle: suspension in saline
# [11] = endpoint: median tumor weight (est.), dose: 25.0 mg/kg/injection, schedule: Q07DX005 (ip), vehicle: saline
# [12] = endpoint: median tumor weight change, dose: 125.0 mg/kg/injection, schedule: Q01DX001 (ip), vehicle: saline with Tween-80
# [13] = endpoint: median tumor weight (est.), dose: 12.5 mg/kg/injection, schedule: Q07DX005 (ip), vehicle: Klucel (hydroxypropylcellulose) (HPC)
# [14] = endpoint: median tumor weight (est.), dose: 25.0 mg/kg/injection, schedule: Q07DX005 (ip), vehicle: Klucel (hydroxypropylcellulose) (HPC)
# [15] = endpoint: median tumor weight (est.), dose: 50.0 mg/kg/injection, schedule: Q07DX005 (ip), vehicle: Klucel (hydroxypropylcellulose) (HPC)
# [16] = endpoint: median tumor weight (est.), dose: 12.5 mg/kg/injection, schedule: Q07DX005 (ip), vehicle: saline with Tween-80
compound,measurement,setting,value
O=c1n[n+]([O-])ccn1C1OC(CO)C(O)C1O (stereo unspecified),T/C,"endpoint: mean tumor weight, dose: 150.0 mg/kg/injection, schedule: Q07DX006 (ip), vehicle: saline",175 % of control
same,T/C,"endpoint: mean tumor weight, dose: 150.0 mg/kg/injection, schedule: Q07DX007 (ip), vehicle: saline",50 % of control
same,T/C,"endpoint: mean tumor weight, dose: 300.0 mg/kg/injection, schedule: Q07DX006 (ip), vehicle: saline",90 % of control
same,T/C,"endpoint: mean tumor weight, dose: 300.0 mg/kg/injection, schedule: Q07DX007 (ip), vehicle: saline",60 % of control
same,T/C,"endpoint: mean tumor weight, dose: 600.0 mg/kg/injection, schedule: Q07DX006 (ip), vehicle: saline",33 % of control
same,T/C,"endpoint: mean tumor weight, dose: 600.0 mg/kg/injection, schedule: Q07DX007 (ip), vehicle: saline",65 % of control
same,T/C,[1],82 % of control
same,T/C,[2],93 % of control
same,T/C,"endpoint: median tumor weight (est.), dose: 200.0 mg/kg/injection, schedule: Q07DX005 (ip), vehicle: saline",71 % of control
same,T/C,"endpoint: median tumor weight (est.), dose: 300.0 mg/kg/injection, schedule: Q07DX005 (ip), vehicle: saline",101 % of control
same,T/C,"endpoint: median tumor weight (est.), dose: 600.0 mg/kg/injection, schedule: Q07DX005 (ip), vehicle: saline",106 % of control
C=CC(=O)NCNC(=O)C=C,T/C,[3],104 % of control
same,T/C,[4],85 % of control
same,T/C,[5],80 % of control
same,T/C,[6],43 % of control
same,T/C,[7],32 % of control
same,T/C,[8],9 % of control
same,T/C,"endpoint: median tumor weight change, dose: 62.5 mg/kg/injection, schedule: Q01DX001 (ip), vehicle: saline",78 % of control
same,T/C,"endpoint: median tumor weight change, dose: 62.5 mg/kg/injection, schedule: Q01DX001 (ip), vehicle: suspension in saline",90 % of control
same,T/C,"endpoint: median tumor weight change, dose: 72.0 mg/kg/injection, schedule: Q01DX001 (ip), vehicle: saline",105 % of control
same,T/C,"endpoint: median tumor weight change, dose: 109.0 mg/kg/injection, schedule: Q01DX001 (ip), vehicle: saline",150 % of control
same,T/C,"endpoint: median tumor weight change, dose: 125.0 mg/kg/injection, schedule: Q01DX001 (ip), vehicle: saline",46 % of control
same,T/C,[9],42 % of control
same,T/C,"endpoint: median tumor weight change, dose: 165.0 mg/kg/injection, schedule: Q01DX001 (ip), vehicle: saline",71 % of control
same,T/C,"endpoint: median tumor weight change, dose: 250.0 mg/kg/injection, schedule: Q01DX001 (ip), vehicle: saline",50 % of control and 74 % of control
same,T/C,[10],-28 % of control
same,T/C,"endpoint: median tumor weight change, dose: 379.0 mg/kg/injection, schedule: Q01DX001 (ip), vehicle: saline",62 % of control
O=c1[nH]c2c(ccc3cnccc32)c2c1CCC2,T/C,"endpoint: median tumor weight (est.), dose: 6.25 mg/kg/injection, schedule: Q07DX005 (ip), vehicle: saline",119 % of control
same,T/C,[3],80 % of control
same,T/C,[11],162 % of control
same,T/C,[4],80 % of control
same,T/C,[1],114 % of control
same,T/C,[5],59 % of control
same,T/C,[2],164 % of control
same,T/C,[6],77 % of control
COC(C(=O)C(O)C(C)O)C1Cc2cc3cc(OC4CC(OC(C)=O)C(OC5CC(O)C(OC)C(C)O5)C(C)O4)cc(O)c3c(O)c2C(=O)C1OC1CC(OC2CC(OC3CC(C)(O)C(OC(=O)C(C)C)C(C)O3)C(O)C(C)O2)C(O)C(C)O1 (stereo unspecified),T/C,"endpoint: median tumor weight (est.), dose: 0.5 mg/kg/injection, schedule: Q07DX005 (ip), vehicle: saline",76 % of control
same,T/C,"endpoint: median tumor weight (est.), dose: 1.0 mg/kg/injection, schedule: Q07DX005 (ip), vehicle: saline",30 % of control
same,T/C,"endpoint: median tumor weight (est.), dose: 2.0 mg/kg/injection, schedule: Q07DX005 (ip), vehicle: saline",34 % of control
Cc1ccc2c(c1)N=C(Nc1ccccc1)N=S2(C)=O (stereo unspecified),T/C,"endpoint: median tumor weight change, dose: 7.81 mg/kg/injection, schedule: Q01DX001 (ip), vehicle: saline with Tween-80",115 % of control
same,T/C,"endpoint: median tumor weight change, dose: 15.62 mg/kg/injection, schedule: Q01DX001 (ip), vehicle: saline with Tween-80",121 % of control
same,T/C,"endpoint: median tumor weight change, dose: 31.25 mg/kg/injection, schedule: Q01DX001 (ip), vehicle: saline with Tween-80",67 % of control
same,T/C,[12],93 % of control
O=C(Nc1ccc(N=C=S)cc1Cl)c1cc(Cl)cc(Cl)c1O,T/C,[13],79 % of control
same,T/C,"endpoint: median tumor weight (est.), dose: 12.5 mg/kg/injection, schedule: Q07DX005 (ip), vehicle: saline",118 % of control
same,T/C,[14],49 % of control
same,T/C,[11],96 % of control
same,T/C,[15],26 % of control
same,T/C,[1],111 % of control
same,T/C,[2],78 % of control
O=C1C(=O)c2cccnc2-c2ncccc21,T/C,"endpoint: median tumor weight change, dose: 1.56 mg/kg/injection, schedule: Q01DX001 (ip), vehicle: Klucel (hydroxypropylcellulose) (HPC)",107 % of control
same,T/C,"endpoint: median tumor weight change, dose: 3.12 mg/kg/injection, schedule: Q01DX001 (ip), vehicle: Klucel (hydroxypropylcellulose) (HPC)",117 % of control
Cc1c2cc(Cl)c3ccccc3c2c[n+]2ccccc12,T/C,[16],52 % of control
same,T/C,"endpoint: median tumor weight (est.), dose: 25.0 mg/kg/injection, schedule: Q07DX005 (ip), vehicle: saline with Tween-80",52 % of control and 57 % of control
same,T/C,"endpoint: median tumor weight (est.), dose: 50.0 mg/kg/injection, schedule: Q07DX005 (ip), vehicle: saline with Tween-80",61 % of control and 65 % of control
O=NN(CCCl)C(=O)NC1OC(CO)C(O)C(O)C1O (stereo unspecified),T/C,"endpoint: median tumor weight (est.), dose: 1.25 mg/kg/injection, schedule: Q07DX005 (ip), vehicle: saline",113 % of control
same,T/C,"endpoint: median tumor weight (est.), dose: 2.5 mg/kg/injection, schedule: Q07DX005 (ip), vehicle: saline",91 % of control
same,T/C,"endpoint: median tumor weight (est.), dose: 5.0 mg/kg/injection, schedule: Q07DX005 (ip), vehicle: saline",106 % of control
same,T/C,"endpoint: median tumor weight (est.), dose: 10.0 mg/kg/injection, schedule: Q07DX005 (ip), vehicle: saline",29 % of control
Cc1cc2nc3[nH]c4ccccc4c3nc2cc1C,T/C,[3],88 % of control
same,T/C,[4],52 % of control
same,T/C,[5],73 % of control
same,T/C,[6],81 % of control
same,T/C,[7],88 % of control
same,T/C,[8],100 % of control
[Cl][Hg][Cl],T/C,"endpoint: median tumor weight change, dose: 1.56 mg/kg/injection, schedule: Q01DX001 (ip), vehicle: saline",87 % of control
same,T/C,"endpoint: median tumor weight change, dose: 3.12 mg/kg/injection, schedule: Q01DX001 (ip), vehicle: saline",71 % of control
c1cc[c]([Sn]([NH]c2ncnc3[nH]cnc23)([NH]c2ncnc3[nH]cnc23)[c]2ccccc2)cc1,T/C,[9],101 % of control
same,T/C,[10],61 % of control
same,T/C,"endpoint: median tumor weight change, dose: 500.0 mg/kg/injection, schedule: Q01DX001 (ip), vehicle: suspension in saline",41 % of control
same,T/C,"endpoint: median tumor weight change, dose: 1000.0 mg/kg/injection, schedule: Q01DX001 (ip), vehicle: suspension in saline",42 % of control
Nc1c(C(=O)O)[nH]c(=O)[nH]c1=O,T/C,[16],83 % of control
CNC(=O)OCc1c(COC(=O)NC)c(C)n(-c2ccc(OC)cc2)c1C,T/C,"endpoint: median tumor weight (est.), dose: 6.25 mg/kg/injection, schedule: Q07DX005 (ip), vehicle: Klucel (hydroxypropylcellulose) (HPC)",113 % of control
same,T/C,[13],90 % of control
same,T/C,[14],152 % of control
same,T/C,[15],23 % of control
same,T/C,"endpoint: median tumor weight (est.), dose: 100.0 mg/kg/injection, schedule: Q07DX005 (ip), vehicle: Klucel (hydroxypropylcellulose) (HPC)",24 % of control
same,T/C,"endpoint: median tumor weight change, dose: 50.0 mg/kg/injection, schedule: Q01DX001 (ip), vehicle: Klucel (hydroxypropylcellulose) (HPC)",109 % of control
same,T/C,"endpoint: median tumor weight change, dose: 200.0 mg/kg/injection, schedule: Q01DX001 (ip), vehicle: Klucel (hydroxypropylcellulose) (HPC)",79 % of control
same,T/C,"endpoint: median tumor weight change, dose: 400.0 mg/kg/injection, schedule: Q01DX001 (ip), vehicle: Klucel (hydroxypropylcellulose) (HPC)",52 % of control
CO[C@H](/C(C)=C/C=C/C(C)=C/c1coc(C)n1)[C@H](C)[C@H]1C[C@@H](O)[C@@]2(C)O[C@H]2/C=C/[C@@H](C)[C@@H]2C[C@@H](CC(=O)O2)C[C@H]2O[C@@H]2C(=O)O1,T/C,"endpoint: median tumor weight change, dose: 0.06 mg/kg/injection, schedule: Q01DX001 (ip), vehicle: Klucel (hydroxypropylcellulose) (HPC)",175 % of control
same,T/C,"endpoint: median tumor weight change, dose: 0.25 mg/kg/injection, schedule: Q01DX001 (ip), vehicle: Klucel (hydroxypropylcellulose) (HPC)",83 % of control
same,T/C,"endpoint: median tumor weight change, dose: 0.5 mg/kg/injection, schedule: Q01DX001 (ip), vehicle: Klucel (hydroxypropylcellulose) (HPC)",110 % of control
same,T/C,"endpoint: median tumor weight change, dose: 1.0 mg/kg/injection, schedule: Q01DX001 (ip), vehicle: Klucel (hydroxypropylcellulose) (HPC)",101 % of control
CN(C)P(=O)(Oc1ccccc1)N(C)C,T/C,"endpoint: median tumor weight change, dose: 62.5 mg/kg/injection, schedule: Q01DX001 (ip), vehicle: saline with Tween-80",86 % of control
same,T/C,[12],63 % of control
same,T/C,"endpoint: median tumor weight change, dose: 500.0 mg/kg/injection, schedule: Q01DX001 (ip), vehicle: saline with Tween-80",94 % of control
